In patent US9938322B2, “β-hairpin peptidomimetics” (priority 2013, dated 2018):
Where a SMILES comes first, the peptide text is derived from it. [ ]: non-standard residue; d: D form. Cha = N[C@@H](CC1CCCCC1)C(=O)O; Chg = N[C@H](C(=O)O)C1CCCCC1; Tle = CC(C)(C)[C@H](N)C(=O)O; dDab = NCC[C@@H](N)C(=O)O; Orn = NCCC[C@H](N)C(=O)O; Dab = NCC[C@H](N)C(=O)O; Nva = CCC[C@H](N)C(=O)O; Abu = CC[C@H](N)C(=O)O

Test system: human red blood cells (hRBC)
Assay: Hemolysis of human red blood cells
Assay type: cell-based
Settings: red cells of human, 1 h, 100
Method in brief: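 Washed fresh human erythrocytes (20% v/v, about 0.9×10^9 cells/ml final) incubated with peptide at 100 μg/ml for 1 h at 37° C with shaking. Supernatant OD540 read; hemolysis expressed relative to 2.5% Triton X-100 (100%) and PBS with 0.001% acetic acid (0%).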

Structure (SMILES): CC[C@@H]1NC(=O)[C@H]([C@@H](C)CC)NC(=O)[C@@H]2CCCN2C(=O)[C@H]2CCCN2C(=O)[C@H](CO)NC(=O)[C@H](C)NC(=O)[C@H](C(C)(C)C)NC(=O)[C@H](CCN)NC(=O)[C@H](Cc2c[nH]c3ccccc23)NC(=O)[C@H](CCN)NC(=O)[C@@H](CCN)NC(=O)[C@H](CCCN)NC(=O)[C@H](CCN)NC(=O)[C@H](Cc2ccc(O)cc2)NC1=O [compound 126] (cyclo(I[Abu]Y[Dab][Orn][dDab][Dab]W[Dab][Tle]AS[dP]P))
- Hemolysis at 100 μg/ml: 0.5%

Structure (SMILES): CC(C)C[C@@H]1NC(=O)[C@@H]2CCCN2C(=O)[C@H]2CCCN2C(=O)[C@H](CO)NC(=O)[C@H](C)NC(=O)[C@H](CC2CCCCC2)NC(=O)[C@H](CCN)NC(=O)[C@H](Cc2c[nH]c3ccccc23)NC(=O)[C@H](CCN)NC(=O)[C@@H](CCN)NC(=O)[C@H](CCCN)NC(=O)[C@H](CCN)NC(=O)[C@H](Cc2ccc(O)cc2)NC(=O)[C@H](C)NC1=O [compound 127] (cyclo(LAY[Dab][Orn][dDab][Dab]W[Dab][Cha]AS[dP]P))
- Hemolysis at 100 μg/ml: 1%

Structure (SMILES): CC(C)C[C@@H]1NC(=O)[C@@H]2CCCN2C(=O)[C@H]2CCCN2C(=O)[C@H](CO)NC(=O)[C@H](C)NC(=O)[C@H](CC2CCCCC2)NC(=O)[C@H](CCN)NC(=O)[C@H](Cc2c[nH]c3ccccc23)NC(=O)[C@H](CCN)NC(=O)[C@@H](CCN)NC(=O)[C@H](CCCCN)NC(=O)[C@H](CCN)NC(=O)[C@H](Cc2ccc(O)cc2)NC(=O)[C@H](C)NC1=O [compound 128] (cyclo(LAY[Dab]K[dDab][Dab]W[Dab][Cha]AS[dP]P))
- Hemolysis at 100 μg/ml: 2%

Structure (SMILES): CC(C)C[C@@H]1NC(=O)[C@@H]2CCCN2C(=O)[C@H]2CCCN2C(=O)[C@H](CO)NC(=O)[C@H](C)NC(=O)[C@H](C2CCCCC2)NC(=O)[C@H](CCN)NC(=O)[C@H](Cc2c[nH]c3ccccc23)NC(=O)[C@H](CCN)NC(=O)[C@@H](CCN)NC(=O)[C@H](CCCN)NC(=O)[C@H](CCN)NC(=O)[C@H](Cc2ccc(O)cc2)NC(=O)[C@H](C)NC1=O [compound 129] (cyclo(LAY[Dab][Orn][dDab][Dab]W[Dab][Chg]AS[dP]P))
- Hemolysis at 100 μg/ml: 1%

Structure (SMILES): CC(C)C[C@@H]1NC(=O)[C@@H]2CCCN2C(=O)[C@H]2CCCN2C(=O)[C@H](CO)NC(=O)[C@H](CO)NC(=O)[C@H](C(C)(C)C)NC(=O)[C@H](CCN)NC(=O)[C@H](Cc2c[nH]c3ccccc23)NC(=O)[C@H](CCN)NC(=O)[C@@H](CCN)NC(=O)[C@H](CCCN)NC(=O)[C@H](CCN)NC(=O)[C@H](Cc2ccc(O)cc2)NC(=O)[C@H](C)NC1=O [compound 130] (cyclo(LAY[Dab][Orn][dDab][Dab]W[Dab][Tle]SS[dP]P))
- Hemolysis at 100 μg/ml: 0.2%

Structure (SMILES): CC(C)C[C@@H]1NC(=O)[C@@H]2CCCN2C(=O)[C@H]2CCCN2C(=O)[C@H]([C@@H](C)O)NC(=O)[C@H](CO)NC(=O)[C@H](C(C)(C)C)NC(=O)[C@H](CCN)NC(=O)[C@H](Cc2c[nH]c3ccccc23)NC(=O)[C@H](CCN)NC(=O)[C@@H](CCN)NC(=O)[C@H](CCCN)NC(=O)[C@H](CCN)NC(=O)[C@H](Cc2ccc(O)cc2)NC(=O)[C@H](C)NC1=O [compound 131] (cyclo(LAY[Dab][Orn][dDab][Dab]W[Dab][Tle]ST[dP]P))
- Hemolysis at 100 μg/ml: 0.1%

Structure (SMILES): CCC[C@@H]1NC(=O)[C@@H]2CCCN2C(=O)[C@H]2CCCN2C(=O)[C@H]([C@@H](C)O)NC(=O)[C@H](CO)NC(=O)[C@H](C2CCCCC2)NC(=O)[C@H](CCN)NC(=O)[C@H](Cc2c[nH]c3ccccc23)NC(=O)[C@H](CCN)NC(=O)[C@@H](CCN)NC(=O)[C@H](CCN)NC(=O)[C@H](CCN)NC(=O)[C@H](Cc2ccc(O)cc2)NC(=O)[C@H](C)NC1=O [compound 132] (cyclo([Nva]AY[Dab][Dab][dDab][Dab]W[Dab][Chg]ST[dP]P))
- Hemolysis at 100 μg/ml: 1.5%

Structure (SMILES): CC[C@H](C)[C@@H]1NC(=O)[C@@H]2CCCN2C(=O)[C@H]2CCCN2C(=O)[C@H]([C@@H](C)O)NC(=O)[C@H]([C@@H](C)O)NC(=O)[C@H](C(C)(C)C)NC(=O)[C@H](CCN)NC(=O)[C@H](Cc2c[nH]c3ccccc23)NC(=O)[C@H](CCN)NC(=O)[C@@H](CCN)NC(=O)[C@H](CCN)NC(=O)[C@H](CCN)NC(=O)[C@H](Cc2ccc(O)cc2)NC(=O)[C@H](C)NC1=O [compound 133] (cyclo(IAY[Dab][Dab][dDab][Dab]W[Dab][Tle]TT[dP]P))
- Hemolysis at 100 μg/ml: 1%

Structure (SMILES): CCC[C@@H]1NC(=O)[C@@H]2CCCN2C(=O)[C@H]2CCCN2C(=O)[C@H](CO)NC(=O)[C@H](C)NC(=O)[C@H](C2CCCCC2)NC(=O)[C@H](CCN)NC(=O)[C@H](Cc2c[nH]c3ccccc23)NC(=O)[C@H](CCN)NC(=O)[C@@H](CCN)NC(=O)[C@H](CCCN)NC(=O)[C@H](CCN)NC(=O)[C@H](CC2CCCCC2)NC(=O)[C@H](CO)NC1=O [compound 134] (cyclo([Nva]S[Cha][Dab][Orn][dDab][Dab]W[Dab][Chg]AS[dP]P))
- Hemolysis at 100 μg/ml: 8%

Structure (SMILES): CC(C)C[C@@H]1NC(=O)[C@@H]2CCCN2C(=O)[C@H]2CCCN2C(=O)[C@H](CO)NC(=O)[C@H](C)NC(=O)[C@H](C(C)(C)C)NC(=O)[C@H](CCN)NC(=O)[C@H](Cc2c[nH]c3ccccc23)NC(=O)[C@H](CCN)NC(=O)[C@@H](CCN)NC(=O)[C@H](CCCN)NC(=O)[C@H](CCN)NC(=O)[C@H](CC2CCCCC2)NC(=O)[C@H](CO)NC1=O [compound 135] (cyclo(LS[Cha][Dab][Orn][dDab][Dab]W[Dab][Tle]AS[dP]P))
- Hemolysis at 100 μg/ml: 5%

Structure (SMILES): CC[C@H](C)[C@@H]1NC(=O)[C@@H]2CCCN2C(=O)[C@H]2CCCN2C(=O)[C@H](CO)NC(=O)[C@H](C)NC(=O)[C@H](C2CCCCC2)NC(=O)[C@H](CCN)NC(=O)[C@H](Cc2c[nH]c3ccccc23)NC(=O)[C@H](CCN)NC(=O)[C@@H](CCN)NC(=O)[C@H](CCCN)NC(=O)[C@H](CCN)NC(=O)[C@H](C(C)(C)C)NC(=O)[C@H](CO)NC1=O [compound 136] (cyclo(IS[Tle][Dab][Orn][dDab][Dab]W[Dab][Chg]AS[dP]P))
- Hemolysis at 100 μg/ml: 5%

Structure (SMILES): CC(C)C[C@@H]1NC(=O)[C@@H]2CCCN2C(=O)[C@H]2CCCN2C(=O)[C@H](CO)NC(=O)[C@H](C)NC(=O)[C@H](C2CCCCC2)NC(=O)[C@H](CCN)NC(=O)[C@H](Cc2c[nH]c3ccccc23)NC(=O)[C@H](CCN)NC(=O)[C@@H](CCN)NC(=O)[C@H](CCCN)NC(=O)[C@H](CCN)NC(=O)[C@H](C(C)(C)C)NC(=O)[C@H](CO)NC1=O [compound 137] (cyclo(LS[Tle][Dab][Orn][dDab][Dab]W[Dab][Chg]AS[dP]P))
- Hemolysis at 100 μg/ml: 4%

Structure (SMILES): CCC[C@@H]1NC(=O)[C@@H]2CCCN2C(=O)[C@H]2CCCN2C(=O)[C@H](CO)NC(=O)[C@H](C)NC(=O)[C@H](C2CCCCC2)NC(=O)[C@H](CCN)NC(=O)[C@H](Cc2c[nH]c3ccccc23)NC(=O)[C@H](CCN)NC(=O)[C@@H](CCN)NC(=O)[C@H](CCCN)NC(=O)[C@H](CCN)NC(=O)[C@H](C(C)(C)C)NC(=O)[C@H](CO)NC1=O [compound 138] (cyclo([Nva]S[Tle][Dab][Orn][dDab][Dab]W[Dab][Chg]AS[dP]P))
- Hemolysis at 100 μg/ml: 1%

Structure (SMILES): CCC[C@@H]1NC(=O)[C@@H]2CCCN2C(=O)[C@H]2CCCN2C(=O)[C@H](CO)NC(=O)[C@H](C)NC(=O)[C@H](CC2CCCCC2)NC(=O)[C@H](CCN)NC(=O)[C@H](Cc2c[nH]c3ccccc23)NC(=O)[C@H](CCN)NC(=O)[C@@H](CCN)NC(=O)[C@H](CCCCN)NC(=O)[C@H](CCN)NC(=O)[C@H](C(C)(C)C)NC(=O)[C@H](CO)NC1=O [compound 139] (cyclo([Nva]S[Tle][Dab]K[dDab][Dab]W[Dab][Cha]AS[dP]P))
- Hemolysis at 100 μg/ml: 5%

Structure (SMILES): CC(C)C[C@@H]1NC(=O)[C@@H]2CCCN2C(=O)[C@H]2CCCN2C(=O)[C@H](CO)NC(=O)[C@H](C)NC(=O)[C@H](C(C)C)NC(=O)[C@H](CCN)NC(=O)[C@H](Cc2c[nH]c3ccccc23)NC(=O)[C@H](CCN)NC(=O)[C@@H](CCN)NC(=O)[C@H](CCCN)NC(=O)[C@H](CCN)NC(=O)[C@H](CC2CCCCC2)NC(=O)[C@H](CO)NC1=O [compound 140] (cyclo(LS[Cha][Dab][Orn][dDab][Dab]W[Dab]VAS[dP]P))
- Hemolysis at 100 μg/ml: 2%

Structure (SMILES): CCC[C@@H]1NC(=O)[C@@H]2CCCN2C(=O)[C@H]2CCCN2C(=O)[C@H](CO)NC(=O)[C@H](C)NC(=O)[C@H](CC2CCCCC2)NC(=O)[C@H](CCN)NC(=O)[C@H](Cc2c[nH]c3ccccc23)NC(=O)[C@H](CCN)NC(=O)[C@@H](CCN)NC(=O)[C@H](CCCN)NC(=O)[C@H](CCN)NC(=O)[C@H](C(C)(C)C)NC(=O)[C@H](CO)NC1=O [compound 141] (cyclo([Nva]S[Tle][Dab][Orn][dDab][Dab]W[Dab][Cha]AS[dP]P))
- Hemolysis at 100 μg/ml: 8%

Structure (SMILES): CC[C@H](C)[C@@H]1NC(=O)[C@@H]2CCCN2C(=O)[C@H]2CCCN2C(=O)[C@H](CO)NC(=O)[C@H](C)NC(=O)[C@H](C(C)(C)C)NC(=O)[C@H](CCN)NC(=O)[C@H](Cc2c[nH]c3ccccc23)NC(=O)[C@H](CCN)NC(=O)[C@H](CCN)NC(=O)[C@H](CCCN)NC(=O)[C@H](CCN)NC(=O)[C@H](CC2CCCCC2)NC(=O)[C@H](CO)NC1=O [compound 142] (cyclo(IS[Cha][Dab][Orn][Dab][Dab]W[Dab][Tle]AS[dP]P))
- Hemolysis at 100 μg/ml: 1%

Structure (SMILES): CC(C)C[C@@H]1NC(=O)[C@@H]2CCCN2C(=O)[C@H]2CCCN2C(=O)[C@H](CO)NC(=O)[C@H](CO)NC(=O)[C@H](C(C)(C)C)NC(=O)[C@H](CCN)NC(=O)[C@H](Cc2c[nH]c3ccccc23)NC(=O)[C@H](CCN)NC(=O)[C@H](CCN)NC(=O)[C@H](CCCN)NC(=O)[C@H](CCN)NC(=O)[C@H](CC2CCCCC2)NC(=O)[C@H](CO)NC1=O [compound 143] (cyclo(LS[Cha][Dab][Orn][Dab][Dab]W[Dab][Tle]SS[dP]P))
- Hemolysis at 100 μg/ml: 0%

Structure (SMILES): CCC[C@@H]1NC(=O)[C@@H]2CCCN2C(=O)[C@H]2CCCN2C(=O)[C@H](CO)NC(=O)[C@H](CO)NC(=O)[C@H](C(C)(C)C)NC(=O)[C@H](CCN)NC(=O)[C@H](Cc2c[nH]c3ccccc23)NC(=O)[C@H](CCN)NC(=O)[C@@H](CCN)NC(=O)[C@H](CCCN)NC(=O)[C@H](CCN)NC(=O)[C@H](CC2CCCCC2)NC(=O)[C@H](CO)NC1=O [compound 144] (cyclo([Nva]S[Cha][Dab][Orn][dDab][Dab]W[Dab][Tle]SS[dP]P))
- Hemolysis at 100 μg/ml: 7%
